# According to patent publication US20240150396A1 (The Texas A&M University System, priority 2021, published 2024):
# Several values for one entry are separate records, joined by “and”; a condition that tells them apart may be missing. Equal entries are not always repeated. Where two headings read alike, the source gives them in different places.
# Assays:
# cruzain = cruzain (Trypanosoma cruzi, UniProt P25779); assay: biochemical
# In short: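 Fluorogenic assay at 25 °C following AMC release (ex 360/em 460 nm), with typically 0.2 nM cruzain and 10% DMSO, at pH 7.5 or 5.5 buffer with 5 mM DTT.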
# [1] = tested on: T. cruzi (Ca-I/72) in C2C12 murine cardiomyoblasts; assay: T. cruzi-infected murine cardiomyoblasts (C2C12); assay type: cell-based, Trypanosoma cruzi; conditions: for EC50: read-out: EC50 T. cruzi-infected cardiomyoblasts
# In short: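 C2C12 mouse cardiomyoblasts infected with T. cruzi Ca-I/72 (10^3 and 10^4 parasites) and exposed to 3-fold serial dilutions of inhibitor from a 10 μM maximum, 48 h at 37° C. After PFA fixation and DAPI staining, automated imaging quantified parasites and host cells, giving EC50 and host CC50.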
# [2] = tested on: T. b. brucei procyclic forms; assay: Growth of axenic cultures of T. b. brucei procyclic forms (PCFs); assay type: cell-based, Trypanosoma brucei brucei; conditions: axenic culture; read-out: EC50 T. b. brucei PCF
# [3] = tested on: T. cruzi epimastigotes (strain Y); assay: Growth of axenic cultures of T. cruzi epimastigotes
# Experimental: Selected cruzain inhibitors in axenic cell cultures of Trypanosoma brucei brucei (procyclic trypomastigotes; ATCC PRA-381) and Trypanosoma cruzi (epimastigote forms; strain Y, ATCC 50832GFP) were tested. T. b. brucei is grown in SDM-79 medium, and T. cruzi is grown in ATCC medium (1029 LIT medium). Both media included fetal calf serum (10%) and penicillin/streptomycin (50 U/mL). […] T. brucei and T. cruzi (5 mL in flask cultures) at 26° C. were seeded at ˜3×10^6 cells, and diluted daily maintaining a mid-log growth phase for up to 100 hrs. Cell counts were scored using a Z2 Coulter Counter. After each cell dilution, fresh compound or an equal volume of DMSO (control samples), was supplemented into the cultures. […] Cruzain inhibitors where the highest concentration reflects the upper limit of solubilities of the inhibitors in 1% (v/v) DMSO solutions were evaluated. These inhibitors are likely to bind to proteins in fetal calf serum, and for these reasons, fresh inhibitors were added each time cells were re-fed.
# Selected cruzain inhibitors were evaluated in axenic cell cultures of T. b. brucei and T. cruzi. Procyclic trypomastigotes of T. b. brucei (ATCC PRA-381) were grown in the SDM-79 medium at 26° C., and bloodstream forms (ATCC PRA-383) were grown at 37° C. in the HMI-9 medium at 5% C02. T. cruzi (epimastigote forms, strain Y, ATCC 50832GFP) was grown in the ATCC medium (1029 LIT medium). Both forms of T. b. brucei and T. cruzi were grown in media containing 10% fetal bovine serum (FBS) and penicillin/streptomycin (50 U mL^−1). […] Control samples contained equal amounts of DMSO. T. b. brucei and T. cruzi (5 mL in flask cultures) were seeded at ˜3×10^6 cells and diluted daily, maintaining a mid-log growth phase for up to 120 h. […] After each cell dilution, fresh compound or an equal volume of DMSO (control samples) was supplemented into the cultures, while maintaining a constant concentration of each inhibitor. Cell counts were scored using a Z2 Coulter Counter.
# human dermal fibroblasts = assay: Human cell toxicity, resazurin viability; assay type: cell-based
# In short: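 Primary human dermal fibroblasts, 2400 cells/well, exposed in duplicate to inhibitors at final 0.001-0.1 mM in 1% DMSO (1% DMSO control) for 48 h at 37 °C. Resazurin then added and viability read by fluorescence (544/590 nm) after further 24 h.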
# [4] = obtained >10 minutes following initiation of reaction by addition of enzyme, pH 7.5, read-out: Ki* Cruzain
# [5] = read-out: T. cruzi axenic culture EC50, epimastigotes
# [6] = Ki* Cruzain, obtained >10 minutes following initiation of reaction by addition of enzyme, pH 7.5
# [7] = apparent initial inhibition constant, 25° C., pH 7.5, read-out: Ki
# [8] = apparent tight-binding inhibition constant, 25° C., pH 7.5, read-out: Ki*
# [9] = Trypanosoma cruzi, C2C12, C2C12 murine cardiomyoblasts
# [10] = conversion of EI* back to EI, from kobs replot or recovery after preincubation and dilution
# Sequence of cruzain (P25779 123-467 limits assumed): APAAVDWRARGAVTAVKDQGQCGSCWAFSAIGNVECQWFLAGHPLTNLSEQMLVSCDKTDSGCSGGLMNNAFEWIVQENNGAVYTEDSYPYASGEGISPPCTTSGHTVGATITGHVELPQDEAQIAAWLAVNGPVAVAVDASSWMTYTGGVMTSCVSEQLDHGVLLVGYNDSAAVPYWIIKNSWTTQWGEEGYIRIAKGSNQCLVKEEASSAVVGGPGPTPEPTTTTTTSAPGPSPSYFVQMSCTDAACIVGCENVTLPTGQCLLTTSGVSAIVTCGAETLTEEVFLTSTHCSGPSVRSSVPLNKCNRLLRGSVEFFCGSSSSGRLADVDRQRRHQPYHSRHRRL
structure (smiles),measurement,setting,value
O=C(N[C@@H](Cc1ccccc1)C(=O)N[C@H]1Cc2ccccc2OC1O)OCc1ccccc1 (stereo partly shown) [Compound 30],ratio of Ki* of SMAI to Ki* of its free aldehyde,cruzain,110
same,Ki,cruzain; [4],0.049 µM
same,EC50,[1]; C2C12 murine cardiomyoblasts,5 to 8 µM and 3 µM and 3 to 5.7 µM
same,EC50,[2],17 µM
same,EC50,[3]; [5],2 to 20 µM
"C[n+]1ccccc1/C=C/[C@H](Cc1ccccc1)NC(=O)[C@H](Cc1ccccc1)NC(=O)OCc1ccccc1.[I-] [Compound 12, 2-((S,E)-3-((S)-2-(((Benzyloxy)carbonyl)amino)-3-phenylpropanamido)-4-phenylbut-1-en-1-yl)-1-methylpyridin-1-ium Iodide]",Ki,cruzain; [6],0.12 to 0.4 µM
same,Ki,"cruzain; Ki*, apparent tight-binding inhibition constant, 25° C., pH 7.5",0.12 µM
same,Ki,cruzain; [7],3.8 ± 0.4 µM
same,Ki,cruzain; [8],0.28 ± 0.08 µM
same,EC50,[1]; C2C12 murine cardiomyoblasts,9.9 ± 0.5 µM
same,Selectivity Index CC50/EC50,[1]; CC50 human dermal fibroblasts / EC50 infected cardiomyoblasts,>10
same,EC50,[1]; [9],5 to 8 µM
same,CC50,"human dermal fibroblasts; human, 48 h",> 100 µM
"O=C(N[C@@H](Cc1ccccc1)C(=O)N[C@H](/C=C/c1ccccn1)Cc1ccccc1)OCc1ccccc1 [Compound 11, Benzyl ((S)-1-Oxo-3-phenyl-1-(((S,E)-1-phenyl-4-(pyridin-2-yl)-but-3-en-2-yl)amino)propan-2-yl)carbamate]",Ki,cruzain; [6],0.12 to 0.4 µM
same,Ki,cruzain; [7],5.5 ± 0.4 µM
same,Ki,cruzain; [8],0.31 µM
same,k4,cruzain; [10],0.0012 ± 0.0002 s⁻¹
same,EC50,[1]; C2C12 murine cardiomyoblasts,5 to 10 µM
same,EC50,[1]; [9],5 to 8 µM
same,CC50,"human dermal fibroblasts; human dermal fibroblasts, read-out: Human Cell Cytotoxicity CC50",> 100 µM
same,EC50,"[3]; Trypanosoma cruzi, read-out: T. cruzi axenic culture EC50, epimastigotes",> 20 µM
same,T. cruzi axenic culture EC50,[3]; epimastigotes,poorly effective
CN1CCN(C(=O)NC(Cc2ccccc2)C(=O)NC2Cc3ccccc3OC2O)CC1 (stereo not shown) [Compound 36],ratio of Ki* of SMAI to Ki* of its free aldehyde,cruzain,94
same,k4,cruzain; [10],(1.8±0.7)×10^−4 s^−1
same,Ki,cruzain; [4],0.047 µM
same,residence time τ,"cruzain; preincubation, dilution, recovery of cruzain activity",26 min
same,EC50,[1]; C2C12 murine cardiomyoblasts,29 µM and ~30 µM
same,EC50,[2],4 µM
same,EC50,[3]; [5],0.54 µM
"C[n+]1ccccc1/C=C/[C@H](CCc1ccccc1)NC(=O)[C@H](Cc1ccccc1)NC(=O)OCc1ccccc1 [Compound 15, 2-((S,E)-3-((S)-2-(((Benzyloxy)carbonyl)amino)-3-phenylpropanamido)-5-phenylpent-1-en-1-yl)-1-methylpyridin-1-ium]",Ki,cruzain; [7],0.76 ± 0.04 µM
same,Ki,cruzain; [8],0.126 µM
same,Ki,"cruzain; calculated from global fitting to eq 6, read-out: Ki*",0.6 ± 0.2 µM
same,k4,cruzain; [10],≈ 0 s^−1
same,k3,cruzain; fitting to eq 4,0.004 ± 0.001 s⁻¹
same,k3,cruzain; global fitting to eq 6,0.0012 ± 0.0004 s⁻¹
same,k4,cruzain; global fitting to eq 6,0.00019 ± 0.00005 s⁻¹
same,Ki,"cruzain; global fitting to eq 6, read-out: Ki",4.3 ± 0.1 µM
same,Ki,cruzain; [4],0.12 to 0.4 µM
same,Ki lower than the values with the three human cathepsins,cruzain; pH 5.5,over 10 fold
same,Ki,"cruzain; pH 5.5, 25° C., 10% DMSO, read-out: Ki* Cruzain",0.088 ± 0.002 µM
same,Ki,"cruzain; pH 5.5, read-out: Ki* Cruzain",0.088 µM
same,Ki,"cruzain; replot of kobs vs inhibitor, fitting to eq 4, read-out: Ki",2 ± 0.9 µM
same,EC50,[1]; C2C12 murine cardiomyoblasts,5.4 ± 0.9 µM
same,EC50,[2],5 to 15 µM and 5.9 µM
same,CC50,human dermal fibroblasts,> 100 µM
same,EC50,[3]; [5],2 to 20 µM and 2.1 µM
